Source: US11123337B2, “4-methylsulfonyl-substituted piperidine urea compounds” (MYOKARDIA, INC., priority 2015, dated 2021)

Experiments:
[1] = biological target: bovine cardiac myosin (Bos taurus, UniProt Q9BE39); assay: Myosin activation assay (PK/LDH-coupled ATPase, bovine cardiac myofibrils); type: biochemical; conditions: AC20 = concentration at which total response is increased by twenty percent
Method in brief: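 Skinned bovine cardiac myofibrils (1 mg/mL) in PIPES/MgCl2 buffer pH 6.8 at free Ca2+ giving ~50% (pCa ~6) or <5% (pCa 10) activation, with 50 μM ATP and 3.3% DMSO. ATPase rate from NADH absorbance at 340 nm (PK/LDH coupling) over 15 min at ambient temperature. AC20/AC50 from a four-parameter fit of DMSO-normalised rates.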

[2] = tested on: adult rat ventricular myocytes; assay: Cardiomyocyte contractility assay (IonOptix edge detection, fractional shortening); type: cell-based; conditions: 1 Hz pacing; for Activity at 1.0 uM (fractional shortening activation over basal): 1.0 uM compound; for Activity at 10 uM (fractional shortening activation over basal): 10 uM compound; for Activity at 3.0 uM (fractional shortening activation over basal): 3.0 uM compound
Protocol: Contractility of adult rat ventricular myocytes is determined by edge detection with an IonOptix contractility system. Aliquots of myocytes in Tyrode buffer (137 mM NaCl, 3.7 mM KCl, 0.5 mM MgCl2, 1.5 mM CaCl2), 4 mM HEPES, 11 mM glucose) are placed in a perfusion chamber (Series 20 RC-27NE; Warner Instruments), allowed to adhere to the coverslip, and then perfused with 37° C. Tyrode buffer. Myocytes are filed stimulated at 1 Hz and 10V. Only myocytes with clear striations, quiescent prior to pacing, with a cell length of 120-180 microns, a basal fractional shortening equal to 3-8% of the cell length, and a contraction velocity greater than 100 microns per second are used for contractility experiments. To determine the response to compounds, myocytes are first perfused for 60 seconds with Tyrodes buffer followed by 5 minutes of compound and a 140 second washout with Tyrodes buffer. Data is continuously recorded using IonOptix software. Contractility data is analyzed using Ionwizard software (IonOptix). For each cell, 10-20 contractility transients were averaged and compared under basal (no compound) and compound-treated conditions. Compound activity is measured by effects on fractional shortening (FS), where fractional shortening is the ratio of the peak length of the cell at contraction divided by the basal cell length normalized to 100% for an untreated cell.

Sequence of bovine cardiac myosin (Q9BE39 whole entry): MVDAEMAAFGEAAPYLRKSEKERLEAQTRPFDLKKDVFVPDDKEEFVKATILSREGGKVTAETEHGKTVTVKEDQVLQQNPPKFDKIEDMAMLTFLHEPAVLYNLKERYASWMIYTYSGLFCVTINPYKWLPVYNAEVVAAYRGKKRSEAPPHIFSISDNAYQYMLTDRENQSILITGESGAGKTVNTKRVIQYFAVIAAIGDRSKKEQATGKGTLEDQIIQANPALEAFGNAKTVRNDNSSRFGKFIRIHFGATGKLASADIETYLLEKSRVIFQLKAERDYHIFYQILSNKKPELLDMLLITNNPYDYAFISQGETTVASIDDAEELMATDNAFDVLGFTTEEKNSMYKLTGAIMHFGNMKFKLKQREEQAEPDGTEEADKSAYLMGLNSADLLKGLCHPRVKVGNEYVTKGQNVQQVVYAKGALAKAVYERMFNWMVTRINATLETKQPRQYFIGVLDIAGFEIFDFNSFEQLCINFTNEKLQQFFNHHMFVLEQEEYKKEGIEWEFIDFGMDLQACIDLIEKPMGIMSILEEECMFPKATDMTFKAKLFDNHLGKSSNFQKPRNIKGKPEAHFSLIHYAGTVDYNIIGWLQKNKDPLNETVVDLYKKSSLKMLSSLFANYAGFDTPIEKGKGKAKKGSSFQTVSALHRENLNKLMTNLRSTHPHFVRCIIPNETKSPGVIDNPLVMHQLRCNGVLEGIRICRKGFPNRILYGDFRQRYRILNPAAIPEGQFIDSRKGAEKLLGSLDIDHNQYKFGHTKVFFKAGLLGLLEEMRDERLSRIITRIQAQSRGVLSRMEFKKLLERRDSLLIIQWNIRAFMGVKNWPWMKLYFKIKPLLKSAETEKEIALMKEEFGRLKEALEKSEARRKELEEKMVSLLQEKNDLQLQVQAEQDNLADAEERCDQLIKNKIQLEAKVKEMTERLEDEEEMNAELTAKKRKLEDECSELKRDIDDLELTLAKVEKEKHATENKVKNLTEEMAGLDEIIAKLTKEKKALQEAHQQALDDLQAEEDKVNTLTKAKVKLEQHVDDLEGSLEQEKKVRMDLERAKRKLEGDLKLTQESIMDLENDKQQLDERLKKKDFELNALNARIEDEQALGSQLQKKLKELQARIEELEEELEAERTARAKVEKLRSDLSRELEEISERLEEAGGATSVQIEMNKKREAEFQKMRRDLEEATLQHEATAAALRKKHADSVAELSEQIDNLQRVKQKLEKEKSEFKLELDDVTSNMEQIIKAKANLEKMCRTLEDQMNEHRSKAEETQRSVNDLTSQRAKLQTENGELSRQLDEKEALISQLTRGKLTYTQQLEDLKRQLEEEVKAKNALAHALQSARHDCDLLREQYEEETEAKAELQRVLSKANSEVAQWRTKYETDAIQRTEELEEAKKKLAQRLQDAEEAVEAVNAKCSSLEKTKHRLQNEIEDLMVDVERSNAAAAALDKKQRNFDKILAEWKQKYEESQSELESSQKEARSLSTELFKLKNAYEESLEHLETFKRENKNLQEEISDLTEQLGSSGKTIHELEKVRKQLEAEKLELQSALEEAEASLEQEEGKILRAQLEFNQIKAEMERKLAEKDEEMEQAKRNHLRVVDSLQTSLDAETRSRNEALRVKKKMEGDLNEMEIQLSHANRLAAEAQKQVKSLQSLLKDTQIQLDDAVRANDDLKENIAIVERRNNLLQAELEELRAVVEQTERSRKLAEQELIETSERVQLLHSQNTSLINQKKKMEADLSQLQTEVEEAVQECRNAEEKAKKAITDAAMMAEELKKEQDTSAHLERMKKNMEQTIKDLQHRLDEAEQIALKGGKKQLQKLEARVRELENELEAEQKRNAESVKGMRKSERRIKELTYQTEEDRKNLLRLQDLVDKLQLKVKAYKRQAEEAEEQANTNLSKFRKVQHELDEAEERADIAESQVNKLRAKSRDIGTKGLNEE
Sequence of bovine cardiac myosin (P85100 whole entry partner): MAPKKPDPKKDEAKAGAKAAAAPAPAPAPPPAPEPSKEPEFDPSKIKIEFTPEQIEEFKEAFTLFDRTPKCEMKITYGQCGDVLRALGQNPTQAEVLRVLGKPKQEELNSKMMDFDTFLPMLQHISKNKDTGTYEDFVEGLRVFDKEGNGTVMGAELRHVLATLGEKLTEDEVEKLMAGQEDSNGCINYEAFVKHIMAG
Sequence of bovine cardiac myosin (Q3SZE5 whole entry partner): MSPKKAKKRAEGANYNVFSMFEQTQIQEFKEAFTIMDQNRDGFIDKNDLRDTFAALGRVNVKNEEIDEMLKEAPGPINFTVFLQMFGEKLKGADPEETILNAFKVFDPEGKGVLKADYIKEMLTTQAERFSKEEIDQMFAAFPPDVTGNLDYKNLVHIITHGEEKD

Row | Compound | Myosin Activation (AC20) [1] | Activity at 1.0 uM (fractional shortening activation over basal) [2] | Activity at 10 uM (fractional shortening activation over basal) [2] | Activity at 3.0 uM (fractional shortening activation over basal) [2]
1 | CC(C)(C1CCN(C(=O)Nc2ccnnc2)CC1)S(=O)(=O)c1cccc(F)c1 [Compound 7, 4-(2-((3-fluorophenyl)sulfonyl)propan-2-yl)-N-(pyridazin-4-yl)piperidine-1-carboxamide] | +++ (+++ represents myosin activation value AC20 < 2 μM) | ++ (++ represents fractional shorting activation values from 20% to 50% over basal) | ++ (++ represents fractional shorting activation values from 20% to 50% over basal) | 
2 | O=C(Nc1ccnnc1)N1CCC(C(F)(F)S(=O)(=O)c2cccc(F)c2)CC1 [Compound 5, 4-(Difluoro((3-fluorophenyl)sulfonyl)methyl)-N-(pyridazin-4-yl)piperidine-1-carboxamide] | ++ (++ represents myosin activation value AC20 from 2 μM-5 μM) | ++ (++ represents fractional shorting activation values from 20% to 50% over basal) | +++ (+++ represents fractional shortening activation values greater than 50% over basal) | 
3 | Cn1nc(C(F)(F)F)cc1S(=O)(=O)[C@@](C)(F)C1CCN(C(=O)Nc2ccon2)CC1 [Compound 18, (R)-4-(1-Fluoro-1-((1-methyl-3-(trifluoromethyl)-1H-pyrazol-5-yl)sulfonyl)ethyl)-N-(isoxazol-3-yl)piperidine-1-carboxamide] | +++ (+++ represents myosin activation value AC20 < 2 μM) | +++ (+++ represents fractional shortening activation values greater than 50% over basal) |  | 
4 | COc1ccc(S(=O)(=O)C(C)(F)C2CCN(C(=O)Nc3ccon3)CC2)cn1 (centres unmarked) [Compound 246, 4-(1-fluoro-1-((6-methoxypyridin-3-yl)sulfonyl)ethyl)-N-(isoxazol-3-yl)piperidine-1-carboxamide] | ++ (++ represents myosin activation value AC20 from 2 μM-5 μM) |  |  | +++ (+++ represents fractional shortening activation values greater than 50% over basal)
5 | C[C@](F)(C1CCN(C(=O)Nc2ccnc(CO)c2)CC1)S(=O)(=O)c1cccc(F)c1 [Compound 287, (R)-4-(1-fluoro-1-((3-fluorophenyl)sulfonyl)ethyl)-N-(2-(hydroxymethyl)pyridin-4-yl)piperidine-1-carboxamide] | +++ (+++ represents myosin activation value AC20 < 2 μM) | ++ (++ represents fractional shorting activation values from 20% to 50% over basal) |  | ++ (++ represents fractional shorting activation values from 20% to 50% over basal)
6 | Cn1cc(S(=O)(=O)C(C)(C)C2CCN(C(=O)Nc3ccon3)CC2)c(C(F)F)n1 [Compound 149, 4-(2-((3-(difluoromethyl)-1-methyl-1H-pyrazol-4-yl)sulfonyl)propan-2-yl)-N-(isoxazol-3-yl)piperidine-1-carboxamide] | ++ (++ represents myosin activation value AC20 from 2 μM-5 μM) |  |  | ++ (++ represents fractional shorting activation values from 20% to 50% over basal)
7 | CC(C)(C1CCN(C(=O)Nc2ccncc2)CC1)S(=O)(=O)c1cccc(F)c1 [Compound 32, 4-(2-((3-fluorophenyl)sulfonyl)propan-2-yl)-N-(pyridin-4-yl)piperidine-1-carboxamide] | +++ (+++ represents myosin activation value AC20 < 2 μM) | ++ (++ represents fractional shorting activation values from 20% to 50% over basal) |  | 
